Reference: patent US12234463B2, “Engineered microorganisms with G3P → 3PG enzyme and/or fructose-1,6-bisphosphatase including those having synthetic or enhanced methylotrophy” (Genomatica, Inc., priority 2018, dated 2025)
Where two headings read alike, the source gives them in different places.

Experiments:
[1] = molecular target: T1, Bacillus methanolicus PB1 GapN (NADP-dependent glyceraldehyde-3-phosphate dehydrogenase), cds 10662A (Bacillus methanolicus, UniProt I3E1I1); test: GapN vs. GapA kinetic comparison: catalytic constants of BM PB1 GapN (cds 10662A, Table 18); type: biochemical; conditions: fixed NADP; G3P varied
T1 sequence (I3E1I1 1-481): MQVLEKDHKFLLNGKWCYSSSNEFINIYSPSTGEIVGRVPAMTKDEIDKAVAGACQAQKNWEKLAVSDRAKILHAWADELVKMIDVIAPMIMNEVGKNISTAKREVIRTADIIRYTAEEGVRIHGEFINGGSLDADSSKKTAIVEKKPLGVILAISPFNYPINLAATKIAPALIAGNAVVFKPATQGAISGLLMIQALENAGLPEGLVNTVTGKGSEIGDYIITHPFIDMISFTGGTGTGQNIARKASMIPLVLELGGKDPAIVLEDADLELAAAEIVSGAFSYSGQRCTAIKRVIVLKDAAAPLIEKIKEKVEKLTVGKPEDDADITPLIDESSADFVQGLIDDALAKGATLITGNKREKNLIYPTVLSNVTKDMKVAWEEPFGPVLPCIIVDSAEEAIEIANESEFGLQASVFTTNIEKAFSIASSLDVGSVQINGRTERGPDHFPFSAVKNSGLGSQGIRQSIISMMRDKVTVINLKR

[2] = molecular target: T2, Bacillus methanolicus MGA3 GapN (NADP-dependent glyceraldehyde-3-phosphate dehydrogenase), cds 10663A (Bacillus methanolicus, UniProt I3EBG2); test: GapN vs. GapA kinetic comparison: catalytic constants of BM MGA3 GapN (cds 10663A, Table 18); type: biochemical; conditions: fixed NADP; G3P varied
T2 sequence (I3EBG2 1-481): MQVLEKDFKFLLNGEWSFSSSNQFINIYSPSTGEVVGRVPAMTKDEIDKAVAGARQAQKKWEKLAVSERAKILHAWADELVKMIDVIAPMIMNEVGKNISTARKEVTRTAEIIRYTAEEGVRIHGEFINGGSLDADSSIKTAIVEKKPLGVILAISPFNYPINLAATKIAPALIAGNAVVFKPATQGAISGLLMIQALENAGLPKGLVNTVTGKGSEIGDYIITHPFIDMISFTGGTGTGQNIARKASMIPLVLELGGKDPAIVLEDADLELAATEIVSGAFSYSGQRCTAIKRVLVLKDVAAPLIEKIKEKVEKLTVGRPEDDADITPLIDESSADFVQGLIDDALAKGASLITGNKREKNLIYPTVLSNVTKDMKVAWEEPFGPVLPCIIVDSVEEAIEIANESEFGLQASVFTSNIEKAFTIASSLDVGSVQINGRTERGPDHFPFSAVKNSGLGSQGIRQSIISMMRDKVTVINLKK

[3] = test system: E. coli fructose-6-phosphate aldolase (F6P aldolase, fsa), wild type; conditions: cited from earlier work; for Km: purified enzyme
[4] = test system: E. coli transketolase A (TktA); conditions: ref. [3], cited from earlier work
[5] = test system: B. methanolicus transketolase; conditions: ref. [2] Markert et al., cited from earlier work
[6] = test system: E. coli fructose-6-phosphate aldolase (F6P aldolase, fsa) variant A129S; conditions: cited from earlier work
[7] = test system: dihydroxyacetone synthase from Mycobacter sp. strain JC1 DSM 3803; conditions: cited from earlier work
[8] = test system: E. coli ribose 5-phosphate isomerase A (RpiA); conditions: read-out: Michaelis constant for ribose 5-phosphate; cited from earlier work
[9] = test system: E. coli ribose 5-phosphate isomerase B (RpiB); conditions: read-out: Michaelis constant for ribose 5-phosphate; cited from earlier work
[10] = reaction substrates, read-out: KM (substrates)
[11] = reaction products, read-out: KM (products)
[12] = fold reduction compared to wild type enzyme

Q: For `O=C[C@H](O)COP(=O)(O)O` [glyceraldehyde 3-phosphate], which Km [1] is on record?
A: The Km was 1100 ± 300 µM.

Q: And the “kcat (G3P)” value [1]?
A: Its value is 8.9 ± 0.8 S^−1.

Q: What about the Km [2] of the same compound?
A: The Km was 1600 ± 100 µM.

Q: What about the “kcat (G3P)” value [2] of the same compound?
A: Its value is 9.5 ± 0.8 S^−1.

Q: And the Km [3]?
A: The Km was 800 µM.

Q: What about the Km [4, 10] of the same compound?
A: The Km was 2100 µM.

Q: And the Km [5, 10]?
A: Its Km is 920 µM.

Q: With `O=C[C@H](O)[C@H](O)COP(=O)(O)O` as the compound, how does the Km [4, 11] read?
A: The Km was 90 µM.

Q: With `O=C(CO)CO` [dihydroxyacetone] as the compound, how does the Km [3] read?
A: The Km was 35000 µM.

Q: And the “improved reactivity towards DHA in terms of Kcat/Km” value ([6]; fold improvement)?
A: The value was “over 17 fold”.

Q: With `O=CCO` [glycoaldehyde] as the compound, how does the “reduced affinity for glycoaldehyde” value [6, 12] read?
A: Its value is “more than 3 fold”.

Q: With `C=O` [formaldehyde] as the compound, how does the Km ([7]; read-out: Km for formaldehyde) read?
A: The Km was 1860 µM.

Q: With `O=C(CO)[C@@H](O)[C@H](O)[C@H](O)[C@H](O)COP(=O)(O)O` [sedoheptulose 7-phosphate] as the compound, how does the Km [4, 10] read?
A: Its Km is 4000 µM.

Q: What does the source list for `O=P(O)(O)OC[C@H]1OC(O)(CO)[C@@H](O)[C@@H]1O` (stereo partly shown) [fructose 6-phosphate]?
A: Vmax for fructose 6-phosphate cleavage ([3]; 30 degrees C., pH 8.5, 50 mm glycylglycine buffer): 7 units/mg of protein; Km [3]: 9000 µM; Km [4, 10]: 1100 µM; Km [5, 10]: 720 µM

Q: For `O=P(O)(O)OC[C@H]1OC(O)[C@H](O)[C@@H]1O` (stereo partly shown) [ribose 5-phosphate], which Km [8] is on record?
A: The Km was 4400 µM.

Q: And the Km [9]?
A: Its Km is 830 µM.

Q: And the Km [4, 11]?
A: The Km was 1400 µM.

Q: What about the Km [5, 11] of the same compound?
A: The Km was 120 µM.

Q: With `CC(=O)CO` [hydroxyacetone] as the compound, how does the “reduced catalytic efficiency on hydroxyacetone” value [6, 12] read?
A: Its value is “more than 3 fold”.

Q: Which results are given for `O=C(CO)[C@@H](O)[C@H](O)COP(=O)(O)O` [xylulose 5-phosphate]?
A: Km ([7]; read-out: Km for xylulose 5-phosphate): 33.3 µM; Km [4, 11]: 160 µM; Km [5, 11]: 150 µM
